Values belong to the compound of their own block, whether it stands above or below them.
Key:
NTR1 = target: T1, NTR1 (Homo sapiens, UniProt P30989); assay: ^125I-NT binding to PC3 cells; conditions: for NT Binding Assay: ability to enhance NT binding in PC3 cells; for Effect on NT binding in PC3 cells: n=3; for NT binding increased as much as / up to (fold): maximal enhancement of NT binding to PC3 cells
T1 construct: endogenous in cells; host or cells: PC3 cells (ATCC)

[1] = parameters: key: +: All of the compounds listed in Table 12 were anticancerous; conditions: from anticancer literature; cited from earlier work
[2] = system: NT-induced inositol phosphate (IP) formation in PC3 cells; assay: NT-induced IP formation in PC3 cells; assay type: cell-based; conditions: Homo sapiens, PC-3
5-LOX = conditions: range of reported values, various blood cell systems; cited from earlier work
[3] = [agent] that decreased IP formation by 40%
[4] = [agent] giving 75% increase in NT binding
[5] = [agent] giving 100% increase in NT binding
[6] = [agent] giving 50% decrease in IP formation

T1 sequence (P30989 whole entry): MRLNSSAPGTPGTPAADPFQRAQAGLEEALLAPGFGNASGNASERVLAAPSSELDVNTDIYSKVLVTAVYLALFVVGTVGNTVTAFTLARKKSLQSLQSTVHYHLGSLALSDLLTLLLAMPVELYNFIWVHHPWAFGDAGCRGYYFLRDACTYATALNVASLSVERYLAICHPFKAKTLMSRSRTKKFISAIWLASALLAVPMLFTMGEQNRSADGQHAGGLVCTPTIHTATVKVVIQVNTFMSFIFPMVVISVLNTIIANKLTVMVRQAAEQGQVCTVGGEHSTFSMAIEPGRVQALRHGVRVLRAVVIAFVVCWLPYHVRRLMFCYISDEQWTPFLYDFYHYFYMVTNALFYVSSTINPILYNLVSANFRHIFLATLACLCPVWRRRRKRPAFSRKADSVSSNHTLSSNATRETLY

SMILES: O[C@H](CS)[C@H](O)CS (racemic) [DTT, dithiothreitol]
Effect on NT binding (NTR1; general reducing agents and antioxidants): not much affected

SMILES: O=CC[C@@H](O)[C@H](O)[C@H](O)CO [2-deoxyglucose]
NT Binding Assay (NTR1): +
Anti-cancer [1]: +

SMILES: Oc1cc(O)c2c(c1)O[C@H](c1ccc(O)c(O)c1)[C@@H](O)C2 [(+)-catechin]
Effect on NT binding in PC3 cells (NTR1; used at 10-100 μM): without effect

SMILES: O=c1cc(-c2ccc(O)cc2)oc2cc(O)cc(O)c12 [Apigenin]
NT Binding Assay (NTR1): +
Anti-cancer [1]: +

SMILES: CC(=O)OCOC(=O)CN(CC(=O)OCOC(C)=O)c1ccccc1OCCOc1ccccc1N(CC(=O)OCOC(C)=O)CC(=O)OCOC(C)=O [BAPTA-AM, 1,2-bis(o-aminophenoxy)ethane-N,N,N′,N′-tetraacetic acid tetra(acetoxymethyl) ester]
Effect on NT binding (NTR1; 50 μM BAPTA-AM): nor was NT binding altered

SMILES: COc1ccc(O)c(C(C)(C)C)c1 [BHA, butylated hydroxy anisole]
EC50 (NTR1; [4]): 110 µM

SMILES: O=c1cc(-c2ccccc2)oc2cc(O)c(O)c(O)c12 [Baicalein, baicalein]
IC50 [2, 3]: > 100 µM
Anti-cancer [1]: +

SMILES: COC(=O)C1=C(C)NC(C)=C([N+](=O)[O-])C1c1ccccc1C(F)(F)F (centres unmarked) [BayK-8644]
EC50 (NTR1; [4]): 16 µM

SMILES: O=C(/C=C/c1ccc(O)c(O)c1)OCCc1ccccc1 [CAPE, caffeic acid phenethyl ester]
IC50 [2, 3]: 18 µM
NT Binding Efficacy % increase (NTR1; LOX blockers): 220 % increase
NT binding increased as much as / up to (fold) (NTR1): ≤ 2.8 fold

SMILES: COc1ccc([C@@H]2Sc3ccccc3N(CCN(C)C)C(=O)[C@@H]2OC(C)=O)cc1 [Diltiazem, diltiazem]
NT Binding Efficacy % increase (NTR1; maximal % increase in NT binding observed for each agent): 38 % increase
NT binding increased as much as / up to (fold) (NTR1): ≤ 1.4 fold

SMILES: c1ccc2c(c1)[I+]c1ccccc1-2 [Diphenylene iodonium]
IC50 [2, 6]: 35 µM
NT Binding Assay (NTR1): +
Anti-cancer [1]: +

SMILES: O=C(O)CN(CCOCCOCCN(CC(=O)O)CC(=O)O)CC(=O)O [EGTA, ethylene glycol tetra-acetic acid]
Increase in NT binding (NTR1): 38±6 % increase

SMILES: CCCCCC#CCC#CCC#CCC#CCCCC(=O)O [ETYA, 5,8,11,14-eicosatetraynoic acid]
IC50 (5-LOX): 6 to 50 µM
IC50 [2, 3]: 32 µM
NT Binding Efficacy % increase (NTR1; LOX blockers): 100 % increase
EC50 (NTR1; [5]): 50 µM

SMILES: COc1ccc2c(c1)c(C1=C(c3c[nH]c4ccccc34)C(=O)NC1=O)cn2CCCN(C)C [Go-6983]
NT Binding Assay (NTR1): +
Anti-cancer [1]: +

SMILES: Cc1cc2c(C(C)C)c(O)c(O)c(C=O)c2c(O)c1-c1c(C)cc2c(C(C)C)c(O)c(O)c(C=O)c2c1O [Gossypol, gossypol]
IC50 [2, 3]: 20 µM

SMILES: CC(=O)N[C@@H](CS)C(=O)O [N-acetyl cysteine]
Effect on NT binding in PC3 cells (NTR1; used at 1-3 mM): without effect

SMILES: CC(Cc1ccc(O)c(O)c1)C(C)Cc1ccc(O)c(O)c1 (centres unmarked) [NDGA, Nordihydroguaiaretic acid]
IC50 (5-LOX): 0.3 to 2 µM
IC50 [2, 3]: 7 µM
NT Binding Efficacy % increase (NTR1; LOX blockers): 230 % increase
EC50 (NTR1; [5]): 16 µM
NT Binding Assay (NTR1): +
Anti-cancer [1]: +

SMILES: COCCOC(=O)C1=C(C)NC(C)=C(C(=O)OC(C)C)C1c1cccc([N+](=O)[O-])c1 (centres unmarked) [NIM, nimodipine]
IC50 [2, 6]: 6 µM

SMILES: CC1=C(/C=C/C(C)=C/C=C/C(C)=C/C(=O)O)C(C)(C)CCC1 [Retinoic Acid, retinoic acid]
IC50 [2, 3]: 7 µM
NT Binding Efficacy % increase (NTR1; LOX blockers): 180 % increase

SMILES: CCCCCC(O)c1cccc(OCc2ccc3ccccc3n2)c1 (centres unmarked) [Rev5901]
IC50 (5-LOX): 10 µM
IC50 [2, 3]: 8 µM
EC50 (NTR1; [5]): 19 µM
NT binding increased as much as / up to (fold) (NTR1): ≤ 2.4 fold

SMILES: Cc1cc(C)c(/C=C2\C(=O)Nc3ccccc32)[nH]1 [SU5416]
Anti-cancer [1]: +

SMILES: CC(=O)O[C@H]1C(=O)[C@@]2(C)[C@H]([C@H](OC(=O)c3ccccc3)[C@]3(O)C[C@H](OC(=O)[C@H](O)[C@@H](NC(=O)c4ccccc4)c4ccccc4)C(C)=C1C3(C)C)[C@]1(OC(C)=O)CO[C@@H]1C[C@@H]2O [Taxol]
NT Binding Assay (NTR1): +

The next lines start with results.

IC50 [2, 3]: 7 µM
NT Binding Efficacy % increase (NTR1; LOX blockers): 155 % increase
SMILES: CC1=C(C)C(=O)C(CCCCC#CCCCC#CCO)=C(C)C1=O [AA861]

NT Binding Assay (NTR1): +
SMILES: COc1cc2ncnc(Nc3cccc(Cl)c3)c2cc1OC [AG1478]
Anti-cancer [1]: +

EC50 (NTR1; [5]): 22 µM
SMILES: CCNC(=O)[C@H]1O[C@@H](n2cnc3c(N)nc(NCCc4ccc(CCC(=O)O)cc4)nc32)[C@H](O)[C@@H]1O [CGS21683]
IC50 (5-LOX): 0.01 to 1 µM

EC50 (NTR1; [4]): 29 µM
SMILES: COC(=O)c1c(C)[nH]c(C)c1C(=O)c1ccccc1Cc1ccccc1 [FPL-64176]

NT Binding Efficacy % increase (NTR1; LOX blockers): 157 % increase
EC50 (NTR1; [5]): 34 µM
SMILES: CCCc1c(OCCCCc2nnn[nH]2)ccc(C(C)=O)c1O [LY171883]

NT Binding Assay (NTR1): +
SMILES: O=C(NCCCCCCNC(=O)ON=C1CCCCC1)ON=C1CCCCC1 [RHC-80267]
Anti-cancer [1]: +

NT Binding Assay (NTR1): +
SMILES: Cn1cc(C2=C(c3ccc(Cl)cc3Cl)C(=O)NC2=O)c2ccccc21 [SB-216763]
Anti-cancer [1]: +

— patent US7507547B2, “Screening assays for antioxidants and antiproliferative compounds” (University of Massachusetts, priority 2004, dated 2009)
